# Measurements reported in US20210283151A1, “USE OF COMPOUND IN DRUG FOR PREVENTING, TREATING, OR ALLEVIATING PAIN” (ASCENTAWITS PHARMACEUTICALS, LTD., priority 2018, published 2021).
# Assays:
# [1] = system: prostaglandin F2; test: Serum prostaglandin F2 by ELISA after single intravenous infusion to cynomolgus monkeys; type: in vivo, cynomolgus monkey; conditions: for The measured concentration of prostaglandin F2: 1 mg/kg intravenous infusion; for Effect on prostaglandin F2 content (in words): cynomolgus monkeys, after administration (0.58 mg/kg as printed in b199), fluctuating increase at 24 h; for The measured concentration of prostaglandin F2, Mean: mean of 3 animals, before administration 1088.09
# Description: (§1) An experiment with three cynomolgus monkeys was performed according to the table below.
# (§2) Four male cynomolgus monkeys were purchased from Guangxi Xiongsen Primate Development and Experiment Co., Ltd., and all of them were healthy cynomolgus monkeys that had passed the physical examination and have no abnormalities. Among them, three cynomolgus monkeys were used in the experiment of administration and the remaining one was used for preparing blank plasma.
# (§3) Before administration, and 6, 24, 48 and 72 hours after the start of administration, 1 mL of blood was collected from the femoral vein or other suitable vein, and placed in a blood collection tube without anticoagulant. After collected, the blood sample was placed on ice and allowed to stand for 30-60 minutes before being centrifuged at 3,500 rpm for 10 minutes at 2-8° C. to separate the serum. The collected serum was stored at −80° C. before being analyzed.
# (§4) Prostaglandins E2 and F2 in serum samples were analyzed by conventional ELISA methods. The measurement results are as follows.
# (§5) The concentrations of prostaglandins E2 and F2 in the serum after single administration to cynomolgus monkeys by intravenous infusion
# [2] = molecular target: T1, AKR1C3 (Homo sapiens, UniProt P42330); test: In vitro AKR1C3 activity: production of reduced progesterone (20α-dihydroprogesterone) by LC/MS; type: biochemical; conditions: reaction 30 min; for AKR1C3 activity % / activity at 5 µM: negative control = 100
# T1 sequence (P42330 1-323): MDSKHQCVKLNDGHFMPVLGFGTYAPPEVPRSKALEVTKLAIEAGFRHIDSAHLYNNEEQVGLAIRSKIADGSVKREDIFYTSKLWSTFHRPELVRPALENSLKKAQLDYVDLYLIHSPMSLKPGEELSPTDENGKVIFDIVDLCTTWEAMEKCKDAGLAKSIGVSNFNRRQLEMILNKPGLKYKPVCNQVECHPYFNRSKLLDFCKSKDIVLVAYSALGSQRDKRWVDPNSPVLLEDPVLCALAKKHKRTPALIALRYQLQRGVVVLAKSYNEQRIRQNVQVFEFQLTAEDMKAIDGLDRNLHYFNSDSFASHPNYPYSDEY
# Description: Experimental apparatus: Waters Acquity I Class UPLC Ultra Performance Liquid Chromatograph equipped with a Xevo G2-XS Q Tof HRMS Quadrupole Time-of-flight High-Resolution Mass Spectrometer
# 1. PBS phosphate buffered saline solution,
# 2. PBS phosphate buffered saline solution of 20 mM NADPH
# 3. PBS phosphate buffered saline solution of 250 μg/mL AKR1C3
# 5. 50% MeOH/H2O solution of 250 μM progesterone
# 6. 100% acetonitrile solution of 1 μg/mL propranolol
# In step 1, the reaction mixtures were prepared into Eppendorf tubes in quadruplicate (n=4) according to the table below and mixed gently.
# In step 2, the above mixtures were pre-incubated in duplicate at 37° C. for 30 minutes and 60 minutes.
# In step 3, another 10 μL of PBS phosphate buffered saline solution of 20 mM NADPH and 2 μL of 50% MeOH/H2O solution of 250 μM progesterone were added to each Eppendorf tube and mixed gently.
# In step 4, 50 μL of the mixture in the above step was immediately transferred to 100 μL of 100% acetonitrile solution of 1 μg/mL propranolol (internal standard (IS)).
# In step 5, the remaining samples were incubated at 37° C. for 30 minutes, and 100 μL of 100% acetonitrile solution of 1 μg/mL propranolol (internal standard (IS)) was added.
# In step 6, 100 μL of reagent water was added to all the samples, vortexed at 1,100 rpm for 5 minutes, and centrifuged at 15,000 rpm for 10 minutes at room temperature.
# In step 7, all the samples were loaded on LC/MS to determine the content of reduced progesterone, namely 20α-dihydroprogesterone.
# The test conditions for the LC-MS apparatus are shown below
# In step 9, the reduced progesterone (20α-dihydroprogesterone) is calculated: the peak area of the reduced progesterone, namely 20α-dihydroprogesterone and propranolol, in each sample was determined by LC/MS. The peak area ratios of reduced progesterone to propranolol (i.e., the ratios in the above table) were calculated, and when the time is 0 the ratio is set to 0%.
# AKR1C3 activity (%)=[(the amount of reduced progesterone after normalization of the sample) 30 min−(the amount of reduced progesterone after normalization of the sample) 0 min]/[(the amount of reduced progesterone after normalization of the negative control group) 30 min−(the amount of reduced progesterone after normalization of the negative control group) 0 min]*100.
# The AKR1C3 activity results in the above table were calculated according to the above formula.
# [3] = system: prostaglandin E2; test: Serum prostaglandin E2 by ELISA after single intravenous infusion to cynomolgus monkeys; type: in vivo, cynomolgus monkey; conditions: for The measured concentration of prostaglandin E2: 1 mg/kg intravenous infusion; for The measured concentration of prostaglandin E2, Mean: mean of 3 animals, before administration 469.60
# Description: as §1, §2, §3, §4, §5
# [4] = animal 101, 6 h after start of administration
# [5] = animal 101, 24 h after start of administration
# [6] = animal 101, 48 h after start of administration
# [7] = animal 101, 72 h after start of administration
# [8] = animal 102, 6 h after start of administration
# [9] = animal 102, 24 h after start of administration
# [10] = animal 102, 48 h after start of administration
# [11] = animal 102, 72 h after start of administration
# [12] = animal 103, 6 h after start of administration
# [13] = animal 103, 24 h after start of administration
# [14] = animal 103, 48 h after start of administration
# [15] = animal 103, 72 h after start of administration
# [16] = 5 μM AST-3424, pre-incubation 30 min at 37° C.
# [17] = 5 μM AST-3424, pre-incubation 60 min at 37° C.
compound,measurement,setting,value
C[C@H](OP(=O)(N1CC1)N1CC1)c1ccc([N+](=O)[O-])c(Oc2cccc(C(=O)N(C)C)c2)c1 [AST-3424],The measured concentration of prostaglandin F2,[1]; [4],165.32 pg/mL
same,The measured concentration of prostaglandin F2,[1]; [5],816.63 pg/mL
same,The measured concentration of prostaglandin F2,[1]; [6],183.73 pg/mL
same,The measured concentration of prostaglandin F2,[1]; [7],441.76 pg/mL
same,The measured concentration of prostaglandin F2,[1]; [8],260.80 pg/mL
same,The measured concentration of prostaglandin F2,[1]; [9],3460.25 pg/mL
same,The measured concentration of prostaglandin F2,[1]; [10],216.12 pg/mL
same,The measured concentration of prostaglandin F2,[1]; [11],968.01 pg/mL
same,The measured concentration of prostaglandin F2,[1]; [12],300.65 pg/mL
same,The measured concentration of prostaglandin F2,[1]; [13],4208.19 pg/mL
same,The measured concentration of prostaglandin F2,[1]; [14],541.05 pg/mL
same,The measured concentration of prostaglandin F2,[1]; [15],1369.67 pg/mL
same,Effect on prostaglandin F2 content (in words),[1]; 0.58 mg/kg,greatly reduce the content of PGF2
same,Effect on prostaglandin F2 content (in words),"[1]; listed as AST3424, 0.58 mg/kg",decreased
same,"The measured concentration of prostaglandin F2, Mean",[1]; 6 h,242.26 pg/mL
same,"The measured concentration of prostaglandin F2, Mean",[1]; 24 h,2828.36 pg/mL
same,"The measured concentration of prostaglandin F2, Mean",[1]; 48 h,313.63 pg/mL
same,"The measured concentration of prostaglandin F2, Mean",[1]; 72 h,926.48 pg/mL
same,AKR1C3 activity %,[2]; [16],3.9%
same,activity at 5 µM,[2]; [16],3.9%
same,AKR1C3 activity %,[2]; [17],9.2%
same,activity at 5 µM,[2]; [17],9.2%
same,Peak area ratio of reduced progesterone to propranolol,"[2]; pre-incubation 30 min, negative control 0.1506",0.0074
same,Peak area ratio of reduced progesterone to propranolol,"[2]; pre-incubation 60 min, negative control 0.1343",0.0137
same,The measured concentration of prostaglandin E2,[3]; [4],210.67 pg/mL
same,The measured concentration of prostaglandin E2,[3]; [5],450.48 pg/mL
same,The measured concentration of prostaglandin E2,[3]; [6],322.13 pg/mL
same,The measured concentration of prostaglandin E2,[3]; [7],408.15 pg/mL
same,The measured concentration of prostaglandin E2,[3]; [8],214.73 pg/mL
same,The measured concentration of prostaglandin E2,[3]; [9],822.21 pg/mL
same,The measured concentration of prostaglandin E2,[3]; [10],168.84 pg/mL
same,The measured concentration of prostaglandin E2,[3]; [11],521.78 pg/mL
same,The measured concentration of prostaglandin E2,[3]; [12],670.73 pg/mL
same,The measured concentration of prostaglandin E2,[3]; [13],2735.20 pg/mL
same,The measured concentration of prostaglandin E2,[3]; [14],276.35 pg/mL
same,The measured concentration of prostaglandin E2,[3]; [15],663.03 pg/mL
same,Effect on prostaglandin E2 content (in words),"[3]; cynomolgus monkeys, after administration (0.58 mg/kg), fluctuating increase at 24 h",decreased
same,"The measured concentration of prostaglandin E2, Mean",[3]; 6 h,365.38 pg/mL
same,"The measured concentration of prostaglandin E2, Mean",[3]; 24 h,1335.97 pg/mL
same,"The measured concentration of prostaglandin E2, Mean",[3]; 48 h,255.78 pg/mL
same,"The measured concentration of prostaglandin E2, Mean",[3]; 72 h,530.99 pg/mL
